Test results reported in patent EP4806891A1 (Kangbaida (Sichuan) Biotechnology Co., Ltd., priority 2023, dated 2025).

Target: T1, HEK-Blue-hTLR8 cells (Homo sapiens, UniProt Q9NR97)
T1 construct: expressed in transfected cells; host or cells: HEK-Blue-hTLR8 cells (HEK293-derived reporter line)
T1 sequence (Q9NR97 27-1041): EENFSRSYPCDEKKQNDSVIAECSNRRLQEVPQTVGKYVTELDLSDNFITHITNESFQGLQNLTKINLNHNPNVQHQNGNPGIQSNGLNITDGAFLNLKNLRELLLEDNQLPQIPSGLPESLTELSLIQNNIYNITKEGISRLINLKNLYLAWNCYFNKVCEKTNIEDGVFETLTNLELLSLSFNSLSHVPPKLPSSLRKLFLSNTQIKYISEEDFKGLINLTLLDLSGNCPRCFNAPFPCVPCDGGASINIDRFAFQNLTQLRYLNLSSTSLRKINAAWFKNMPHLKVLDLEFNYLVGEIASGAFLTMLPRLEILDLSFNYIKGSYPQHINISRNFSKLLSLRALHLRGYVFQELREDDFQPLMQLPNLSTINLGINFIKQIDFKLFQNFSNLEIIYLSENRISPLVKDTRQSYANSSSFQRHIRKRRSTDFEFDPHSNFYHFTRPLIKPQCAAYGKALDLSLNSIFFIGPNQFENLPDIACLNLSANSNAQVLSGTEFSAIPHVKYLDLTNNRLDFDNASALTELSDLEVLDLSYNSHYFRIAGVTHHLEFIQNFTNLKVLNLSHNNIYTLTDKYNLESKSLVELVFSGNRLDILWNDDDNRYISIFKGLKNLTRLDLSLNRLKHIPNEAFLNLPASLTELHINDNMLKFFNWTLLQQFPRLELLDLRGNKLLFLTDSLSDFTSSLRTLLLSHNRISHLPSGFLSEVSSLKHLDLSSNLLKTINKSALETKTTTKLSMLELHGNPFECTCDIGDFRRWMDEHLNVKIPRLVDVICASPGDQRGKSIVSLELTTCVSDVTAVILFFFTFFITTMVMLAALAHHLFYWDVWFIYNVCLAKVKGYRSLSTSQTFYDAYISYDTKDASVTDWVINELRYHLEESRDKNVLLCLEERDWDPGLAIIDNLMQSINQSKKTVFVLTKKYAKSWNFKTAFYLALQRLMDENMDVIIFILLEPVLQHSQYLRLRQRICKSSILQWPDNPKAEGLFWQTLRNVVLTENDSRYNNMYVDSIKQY
Assay: HEK-Blue-hTLR8 cell inhibition assay
Type: cell-based
Conditions: R848 3 µM, 16 h, OD 620 nm, read-out: TLR8 IC50
Description: HEK-Blue-hTLR7/8/9 cell inhibition assay
1. HEK-Blue-hTLR7/8 cells (1 × 10^4 cells/well) and HEK-Blue-hTLR9 cells (1.5 × 10^4 cells/well) were seeded in a 384-well cell culture plate, with a volume of 30 µL per well. The plate was incubated at 37°C in a 5% CO2 incubator for 4 h. 2. The compound was prepared with DMSO and diluted in DMEM medium to 10 concentrations (1:3 dilution), with final concentrations of 10000, 3333.3, 1111.1, 370.4, 123.5, 41.2, 13.7, 4.6, 1.5, and 0.5 nM; R848 was prepared with DMSO and diluted in DMEM medium, with final concentrations of 0.8 µM (HEK-Blue-hTLR7) and 3 µM (HEK-Blue-hTLR8); ODN2006 was prepared with endotoxin-free water and diluted in DMEM medium, with a final concentration of 1 µM. 3. Cells treated with DMSO were used as the blank control group, while cells treated solely with Resiquimod (R848) were used as the positive control group for HEK-Blue-hTLR7/8, and cells treated solely with ODN2006 were used as the positive control group for HEK-Blue-hTLR9. Cells treated with the test compound together with R848 or ODN2006 were used as the test group. Two parallel wells were set for each group and were placed at 37°C in a 5% CO2 incubator for incubation. 4. After being incubated for 4 h, the 384-well plate of HEK-Blue-hTLR7/8 was taken out from the incubator, and R848 alone or both R848 and the diluted compound were separately added into each well. The plate was placed at 37°C in a 5% CO2 incubator for incubation for 16 h; the 384-well plate of HEK-Blue-hTLR9 was taken out from the incubator, and ODN2006 alone or both ODN2006 and the diluted compound were added separately to each well. The plate was incubated at 37°C in a 5% CO2 incubator for 16 h. 5. After being incubated for 16 h, the 384-well plate was removed from the incubator and centrifuged at 1000 rpm for 1 minute. The optical density value of each well at 620 nm was measured using a multifunctional microplate reader. 6. The cell inhibition rate was calculated as (1-(OD620 test group-OD620 blank group)/(OD620 positive group-OD620 blank group))×100%, and the half maximal inhibitory concentration (IC50) was calculated through curve fitting. Table 1: Activity of the compounds of the present disclosure in HEK-Blue-hTLR7/8/9 cellular assays

SMILES | IC50 [nM]
CN1CCN(c2nnc([C@]34CN(c5ccc(C#N)c6ncccc56)C[C@@]3(C(F)(F)F)C4)o2)CC1 [Compound 1, 5-((1S,5R)-1-(5-(4-methylpiperazin-1-yl)-1,3,4-oxadiazol-2-yl)-5-(trifluoromethyl)-3-azabicyclo[3.1.0]hexan-3-yl)quinoline-8-carbonitrile] | < 100
FC(F)(F)c1ccc(N2C[C@]3(c4nnc(C5(F)CCNCC5)o4)C[C@]3(C(F)(F)F)C2)c2cccnc12 [Compound 3, 2-(4-fluoropiperidin-4-yl)-5-((1S,5R)-5-(trifluoromethyl)-3-(8-(trifluoromethyl)quinolin-5-yl)-3-azabicyclo[3.1.0]hexan-1-yl)-1,3,4-oxadiazole] | < 100
CN1CC(c2nnc([C@]34CN(c5ccc(C(F)(F)F)c6ncccc56)C[C@@]3(C(F)(F)F)C4)o2)C1 [Compound 4, 2-(1-methylazetidin-3-yl)-5-((1S,5R)-5-(trifluoromethyl)-3-(8-(trifluoromethyl)quinolin-5-yl)-3-azabicyclo[3.1.0]hexan-1-yl)-1,3,4-oxadiazole] | < 100
N#Cc1ccc(N2C[C@]3(c4nnc(N)o4)C[C@]3(C(F)(F)F)C2)c2cccnc12 [Compound 7, 5-((1S,5R)-1-(5-amino-1,3,4-oxadiazol-2-yl)-5-(trifluoromethyl)-3-azabicyclo[3.1.0]hexan-3-yl)quinoline-8-carbonitrile] | < 100
CN1CCC(C)(c2nnc([C@]34CN(c5ccc(C#N)c6ncccc56)C[C@@]3(C(F)(F)F)C4)o2)CC1 [Compound 8, 5-((1S,5R)-1-(5-(1,4-dimethylpiperidin-4-yl)-1,3,4-oxadiazol-2-yl)-5-(trifluoromethyl)-3-azabicyclo[3.1.0]hexan-3-yl)quinoline-8-carbonitrile] | < 100
CN1[C@@H]2CC[C@H]1C[C@H](c1nnc([C@]34CN(c5ccc(C#N)c6ncccc56)C[C@@]3(C(F)(F)F)C4)o1)C2 [Compound 11, 5-((1S,5R)-1-(5-((1R,3S,5S)-8-methyl-8-azabicyclo[3.2.1]octan-3-yl)-1,3,4-oxadiazol-2-yl)-5-(trifluoromethyl)-3-azabicyclo[3.1.0]hexan-3-yl)quinoline-8-carbonitrile] | < 100
N#Cc1ccc(N2C[C@]3(c4nnc(C5CCOCC5)o4)C[C@]3(C(F)(F)F)C2)c2cccnc12 [Compound 12, 5-((1S,5R)-1-(5-(tetrahydro-2H-pyran-4-yl)-1,3,4-oxadiazol-2-yl)-5-(trifluoromethyl)-3-azabicyclo[3.1.0]hexan-3-yl)quinoline-8-carbonitrile] | < 100
CN1CC2CC1CC2c1nnc([C@]23CN(c4ccc(C#N)c5ncccc45)C[C@@]2(C(F)(F)F)C3)o1 (stereo partly drawn) [Compound 14, 5-((1S,5R)-1-(5-(2-methyl-2-azabicyclo[2.2.1]heptan-5-yl)-1,3,4-oxadiazol-2-yl)-5-(trifluoromethyl)-3-azabicyclo[3.1.0]hexan-3-yl)quinoline-8-carbonitrile] | < 100
N#Cc1ccc(N2C[C@]3(c4nnc(C5CC6(CNC6)C5)o4)C[C@]3(C(F)(F)F)C2)c2cccnc12 [Compound 18, 5-((1S,5R)-1-(5-(2-azaspiro[3.3]heptan-6-yl)-1,3,4-oxadiazol-2-yl)-5-(trifluoromethyl)-3-azabicyclo[3.1.0]hexan-3-yl)quinoline-8-carbonitrile] | < 100
CN1CC2(CC(c3nnc([C@]45CN(c6ccc(C#N)c7ncccc67)C[C@@]4(C(F)(F)F)C5)o3)C2)C1 [Compound 19, 5-((1S,5R)-1-(5-(2-methyl-2-azaspiro[3.3]heptan-6-yl)-1,3,4-oxadiazol-2-yl)-5-(trifluoromethyl)-3-azabicyclo[3.1.0]hexan-3-yl)quinoline-8-carbonitrile] | < 100
N#Cc1ccc(N2C[C@]3(c4nnc([C@H]5CC[C@H](N)CC5)o4)C[C@]3(C(F)(F)F)C2)c2cccnc12 [Compound 20, 5-((1S,5R)-1-(5-((1R,4S)-4-aminocyclohexyl)-1,3,4-oxadiazol-2-yl)-5-(trifluoromethyl)-3-azabicyclo[3.1.0]hexan-3-yl)quinoline-8-carbonitrile] | < 100

Results, then the compound that gave them:

IC50 [nM] | SMILES
> 1000 | Cc1cc(N2CC3(c4nnc(C5CCN(C)CC5)o4)C[C@]3(C(F)(F)F)C2)c2cnn(C)c2n1 (stereo partly drawn) [Compound 2, 2-((5R)-3-(1,6-dimethyl-1H-pyrazolo[3,4-b]pyridin-4-yl)-5-(trifluoromethyl)-3-azabicyclo[3.1.0]hexan-1-yl)-5-(1-methylpiperidin-4-yl)-1,3,4-oxadiazole]
> 1000 | CN1CCC(c2nnc([C@]34CN(c5ccc(C#N)c6ncccc56)C[C@@]3(C(F)(F)F)C4)n2C)CC1 [Compound 5, 5-((1S,5R)-1-(4-methyl-5-(1-methylpiperidin-4-yl)-4H-1,2,4-triazol-3-yl)-5-(trifluoromethyl)-3-azabicyclo[3.1.0]hexan-3-yl)quinoline-8-carbonitrile]
< 100 | CN1CCC(Nc2nnc([C@]34CN(c5ccc(C#N)c6ncccc56)C[C@@]3(C(F)(F)F)C4)o2)CC1 [Compound 6, 5-((1S,5R)-1-(5-((1-methylpiperidin-4-yl)amino)-1,3,4-oxadiazol-2-yl)-5-(trifluoromethyl)-3-azabicyclo[3.1.0]hexan-3-yl)quinoline-8-carbonitrile]
< 100 | CN1CCC(c2nnc([C@]34CN(c5ccc(C#N)c6ncccc56)C[C@@]3(C(F)(F)F)C4)[nH]2)CC1 [Compound 9, 5-((1S,5R)-1-(5-(1-methylpiperidin-4-yl)-4H-1,2,4-triazol-3-yl)-5-(trifluoromethyl)-3-azabicyclo[3.1.0]hexan-3-yl)quinoline-8-carbonitrile]
< 100 | CN1CC2(CCC(c3nnc([C@]45CN(c6ccc(C#N)c7ncccc67)C[C@@]4(C(F)(F)F)C5)o3)CC2)C1 [Compound 13, 5-((1S,5R)-1-(5-(2-methyl-2-azaspiro[3.5]nonan-7-yl)-1,3,4-oxadiazol-2-yl)-5-(trifluoromethyl)-3-azabicyclo[3.1.0]hexan-3-yl)quinoline-8-carbonitrile]
< 100 | CN1CCC(Oc2nnc([C@]34CN(c5ccc(C#N)c6ncccc56)C[C@@]3(C(F)(F)F)C4)o2)CC1 [Compound 15, 5-((1S,5R)-1-(5-((1-methylpiperidin-4-yl)oxy)-1,3,4-oxadiazol-2-yl)-5-(trifluoromethyl)-3-azabicyclo[3.1.0]hexan-3-yl)quinoline-8-carbonitrile]
< 100 | N#Cc1ccc(N2C[C@]3(c4nnc(C5CCN(CC(N)=O)CC5)o4)C[C@]3(C(F)(F)F)C2)c2cccnc12 [Compound 17, 2-(4-(5-((1S,5R)-3-(8-cyanoquinolin-5-yl)-5-(trifluoromethyl)-3-azabicyclo[3.1.0]hexan-1-yl)-1,3,4-oxadiazol-2-yl)piperidin-1-yl)acetamide]
